Results on four compounds are retold here after patent publication US20070004689A1, “Antiangiogenic agents” (priority 2004, published 2007).

Read-outs that look alike come from different tables or passages of the source.

One data set has as its system U87-MG a human glioma. Briefly: Proliferation assay, U87-MG. The conditions noted are these: proliferation, read-out: U87-MG (IC50 μM). It is filed as cell-based. An excerpt: (§1) Cell Culture: Human umbilical vein endothelial cells (HUVEC) were obtained from Clonetics (San Diego, Calif.), MCF7 cells were the kind gift of Dr. Dorraya El Ashry (University of Michigan), MDA-MB-231 a human breast carcinoma, PC3 a human prostate carcinoma, and U87-MG a human glioma, cell lines were obtained from ATCC. HUVEC cultures were maintained for up to 5 passages in EGM containing bovine brain extract (Clonetics) and 1× antibiotic-antimycotic (BioWhittaker, Walkersville, Md.). MDA-MB-231, PC3, U87-MG and MCF-7 cells were maintained in DMEM/F12 (1:1) containing 10% (v/v) fetal bovine serum (Hyclone Laboratories, Logan, Utah) and 1× antibiotic-antimycotic. MCF7 cells were used between passage 60 and passage 100.
(§2) Proliferation Assays: Proliferation was measured by cell counting using a Coulter Zl cell counter (Coulter Corporation, Hialeah, Fla.) or by evaluation of DNA synthesis. Each condition was done in triplicate and experiments were repeated at least twice. To determine estrogenicity of the analogs, MCF7 estrogen-dependent proliferation assays were performed. The cells were seeded in complete media at 10,000 cells/well in a 24 well plate after allowing the cells to adhere overnight and the seeding density was determined by cell counts. Cells were washed with PBS (37° C.) and starved by placing them in IMEM-phenol red free media containing 2% charcoal-dextran fetal bovine-stripped serum (Valley Biomedical, Winchester, Va.) and 1× antibiotic-antimycotic. After 3 days of starvation, cells were treated with or without increasing concentrations of compounds, replacing the media every 2-3 days and counted after 7 days of treatment. In order to ensure that only the added test compounds stimulated growth, experiments were performed only with cell cultures that duplicated less than once during the starvation period. Values are expressed as MCF7 stimulation index (SI) relative to 2ME2 (defined as 1.00). A value less than 1.00 indicates reduced estrogenicity. Estradiol is used as a positive control.
(§3) To determine anti-tumor and anti-angiogenic activities of the analogs, proliferation assays were performed by evaluating detection of DNA synthesis by use of the 5-bromo-2′-deoxyuridine (BrdU) cell proliferation colorimetric ELISA kit from Roche (Indianapolis, Ind.) according to the manufacturer's instructions. For BrdU assays, the cells were seeded at 1,000 cells/well (MDA-MB-231, anti-tumor activity) or 3,000 cells/well (HUVEC, anti-angiogenic activity) in a 96 well plate, allowed to attach overnight and then exposed to the compound for 48 h. IC50 value is the concentration at which cell proliferation is inhibited by 50%.
(§4) Antiproliferative activity of the NCEs were assessed in tumor cell lines (MDA-MB-231 a breast carcinoma, PC3 a prostate carcinoma and U87-MG a glioma) and endothelial cells (HUVEC).

For data set [1], the system named is Human umbilical vein endothelial cells (HUVEC). Put plainly: BrdU proliferation assay, HUVEC (anti-angiogenic activity). The conditions noted are these: BrdU DNA synthesis, 48 h exposure, read-out: HUVEC (IC50 μM). It is filed as cell-based.
Text: as §1, §2, §3, §4

The test system of data set [2] is CYP450 (CYP1A2, CYP2C9, CYP2C19, CYP2D6, CYP3A) in pooled human liver microsomes. Put plainly: CYP450 inhibition using human microsomes. In kind it is in vitro ADME. The conditions noted are these: test compound 0.034-25 μM, CYP inhibited. As to the method:
Determination of CYP450 inhibition and IC50 value using human microsomes: CYP450 inhibition provides a measure of potential issues with co-medication, since CYP450 enzymes metabolize many drugs. Microsomal incubation mixtures (500 μL) were prepared in HEPES buffer (50 mM HEPES, 15 mM MgCl2, 0.1 mM EDTA, pH 7.6) containing a NADPH regenerating system (1 mM NADPH, 10 mM glucose-6-phosphate 1 IU glucose-6-phosphate dehydrogenase), pooled human liver microsomes (0.5 mg protein), and 5 μL of 7 concentrations of compounds and positive control inhibitors (see Tables IV, V and VI).
After addition of the compounds or positive control inhibitors, the samples were pre-incubated at 37° C. for approximately 5 minutes. Subsequently, the P450 substrate cocktail were added to the reaction mixture and incubated for 20 minutes at 37° C. Reactions were terminated by the addition of 250 μL of methanol containing 5 μM dextrorphan as an internal standard (IS). The samples were vortexed briefly, placed on ice, and then centrifuged at approximately 12000×g for 5 minutes to remove debris. The supernatant from each sample was then transferred to a separate vial for LC-MS/MS analysis. Analysis to determine the amount of substrate specific metabolites (relative to the control samples) was carried out using reverse phase HPLC with tandem mass spectrometric detection (LC-MS/MS). Analysis of the data was carried out using Micromass MetaboLynx and QuanLynx software Versions 3.5 to determine the amount of the specific substrate metabolites produced in each sample (relative to the control samples).

Data set [3] deals with Rat hepatocyte suspensions. Put plainly: Hepatocyte incubations, rat. In kind it is in vitro ADME. The conditions noted are these: rat hepatocytes, NR = no reaction; for Hepatocyte Rat 60/120′ (1 uM): 60′ / Hepatocyte Rat 60/120′ (5 uM): 60′: 60 minutes; for Hepatocyte Rat 60/120′ (1 uM): 60′ / Hepatocyte Rat 60/120′ (1 uM): 120′: in % (unit assumed); for Hepatocyte Rat 60/120′ (5 uM): 60′ / Hepatocyte Rat 60/120′ (5 uM): 120′: unit assumed; for Hepatocyte Rat 60/120′ (5 uM): 120′ / Hepatocyte Rat 60/120′ (1 uM): 120′: 120 minutes. On the procedure: (§5) Hepatocyte Incubations: An in vitro measure of metabolism using cells from rat and human liver. Rat and human hepatocyte suspensions (10^6 cells per mL of serum-free (H)CL15 culture medium) were incubated with 2 concentrations (1 and 5 μM) of each of the compounds. Stock solutions were prepared in DMSO, and were further diluted in culture medium to the final test concentrations. 7-Ethoxycoumarin (7-EC) were included as a positive control substrate for P450. A 0.1 M 7-EC stock solution was prepared in DMSO, and the final assay concentration was 100 μM. The reactions were initiated by the addition of the substrates, incubated at 37° C., and terminated after 0, 60 and 120 minutes by addition of acetonitrile. The positive 7-EC control reactions were stopped with perchloric acid or ZnSO4 and BaOH after 60-minutes of incubation. The reaction mixture was centrifuged to remove the cell debris, and the supernatant was used for subsequent analysis by HPLC/LC-MS. If necessary, the supernatants were flash frozen in liquid N2 and stored at −70° C. until further analysis. HPLC was used to analyze product formation from 7-EC. Analyses to determine the concentration of the test compounds were carried out using reverse phase HPLC with tandem mass spectrometric detection (LC-MS/MS). Samples were analyzed to measure the disappearance of parent compound over time. The rate of metabolism was estimated by fitting a curve to the data for each concentration against time using GraphPad Prism Version 3.02 software.

Data set [4] relates to human hepatocyte suspensions. Briefly: Hepatocyte incubations, human. In kind it is in vitro ADME. The conditions noted are these: human hepatocytes, NR = no reaction; for Hepatocyte Human 60/120′ (1 uM): 60′ / Hepatocyte Human 60/120′ (5 uM): 60′: 60 minutes; for Hepatocyte Human 60/120′ (1 uM): 120′ / Hepatocyte Human 60/120′ (5 uM): 120′: 120 minutes. On the procedure: as §5

A word on the IC50: it is the concentration that inhibits the measured activity by half. For the compound `COc1cc2c(cc1C(N)=O)CC[C@@H]1[C@@H]2CC[C@]2(C)C(=O)CC[C@@H]12` [Compound 54, 2-methoxy-17-oxoestra-1,3,5(10)-triene-3-carboxamide], in the data set with U87-MG a human glioma (Homo sapiens, U-87 MG), the IC50 was found to be 2.23 ± 0.4 µM. For the same compound, the IC50 in data set [1] (Homo sapiens, HUVEC) turned out to be 5.46 ± 1.57 µM. Moreover, the CYP450 inhib. result in data set [2] is “None”. In data set [3], the “Hepatocyte Rat 60/120′ (1 uM): 60′” value was found to be 78, the Hepatocyte Rat 60/120′ (5 uM): 60′ stood at 95% and the Hepatocyte Rat 60/120′ (5 uM): 120′ came to 101%. Further, in data set [4], the “Hepatocyte Human 60/120′ (1 uM): 60′” value was 99, the “Hepatocyte Human 60/120′ (1 uM): 120′” value is 102 and the “Hepatocyte Human 60/120′ (5 uM): 120′” value amounted to 103.

On to `COc1cc2c(cc1C(N)=O)CC[C@@H]1[C@@H]2CC[C@]2(C)C=CC[C@@H]12` [Compound 63, 3-carboxamide-2-methoxy-1,3,5(10)16-estratetraene], for which, in the data set on U87-MG a human glioma, the IC50 was 0.23 ± 0.08 µM. Besides, the IC50 in data set [1] worked out at 0.13 ± 0.05 µM. Further, the CYP450 inhib. entry in data set [2] was “None”. In addition, in data set [3], the “Hepatocyte Rat 60/120′ (1 uM): 60′” value came out at 77, the “Hepatocyte Rat 60/120′ (1 uM): 120′” value was 67, the Hepatocyte Rat 60/120′ (5 uM): 60′ was determined as 78% and the Hepatocyte Rat 60/120′ (5 uM): 120′ came out at 87%. In data set [4], the “Hepatocyte Human 60/120′ (1 uM): 60′” value stood at 52, the “Hepatocyte Human 60/120′ (1 uM): 120′” value came to 70, the “Hepatocyte Human 60/120′ (5 uM): 60′” value turned out to be 92 and the “Hepatocyte Human 60/120′ (5 uM): 120′” value worked out at 71.

On to `C=C1CC[C@H]2[C@@H]3CCc4cc(C(N)=O)c(OC)cc4[C@H]3CC[C@]12C` [Compound 60, 2-Methoxy-17-methyleneestra-1,3,5(10)-triene-3-carboxamide], for which the 50% inhibitory concentration (IC50) in the data set with U87-MG a human glioma (Homo sapiens, U-87 MG) was determined as 0.25 ± 0.02 µM. In data set [1] (Homo sapiens, HUVEC), the 50% inhibitory concentration (IC50) is 0.12 ± 0.06 µM. Besides, the CYP450 inhib. result in data set [2] was “None”. In addition, in data set [3], the “Hepatocyte Rat 60/120′ (1 uM): 60′” value is 99, the “Hepatocyte Rat 60/120′ (1 uM): 120′” value worked out at 87 and the Hepatocyte Rat 60/120′ (5 uM): 60′ was 87%. Further, in data set [4], the “Hepatocyte Human 60/120′ (1 uM): 120′” value amounted to 91, the “Hepatocyte Human 60/120′ (5 uM): 60′” value is reported as 96 and the “Hepatocyte Human 60/120′ (5 uM): 120′” value was found to be 93.

`COc1cc2c(cc1C(N)=O)CC[C@@H]1[C@@H]2CC[C@]2(C)CCC[C@@H]12` [Compound 57, (2-Methoxyestra-1,3,5(10)-trien-3-yl)-3-carboxamide]: the concentration for half-maximal inhibition (IC50) with U87-MG a human glioma came to 10 ± 2.49 µM. The IC50 in data set [1] was 0.96 ± 0.26 µM. Moreover, the CYP450 inhib. result in data set [2] was “None”. Besides, in data set [3], the “Hepatocyte Rat 60/120′ (1 uM): 60′” value is 91, the “Hepatocyte Rat 60/120′ (1 uM): 120′” value was determined as 85, the Hepatocyte Rat 60/120′ (5 uM): 60′ turned out to be 95% and the Hepatocyte Rat 60/120′ (5 uM): 120′ turned out to be 83%. In data set [4], the “Hepatocyte Human 60/120′ (1 uM): 60′” value amounted to 111, the “Hepatocyte Human 60/120′ (1 uM): 120′” value came to 98, the “Hepatocyte Human 60/120′ (5 uM): 60′” value is given as 117 and the “Hepatocyte Human 60/120′ (5 uM): 120′” value stood at 118.
